Data published in ChEMBL document CHEMBL1201862, “PubChem BioAssay data set” (2004).
Calls of active or inactive are those of the source.

How the values were obtained:
Beta-galactosidase = Beta-galactosidase (Escherichia coli, UniProt Q8VNN2); experiment: PubChem AID 485352; type: functional
Large T antigen = Large T antigen (Simian virus 40, UniProt P03070); type: functional, Betapolyomavirus macacae;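 also: Confirmatory-stage PubChem screen for compounds that inhibit SV40 T antigen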
[1] = Trypanosoma cruzi growth suppression in host cells – NIH3T3 host cells, beta-gal luminescence, confirmation (AID 2044); type: functional, cell-based;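 also: intracellular parasites grown in NIH/3T3 mouse fibroblasts as host cells; luminescent beta-galactosidase reporter signal from transgenic T. cruzi replicating inside host cells; inhibitors lower the luminescence signal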
[2] = biological target: T1, Type-1 angiotensin II receptor (Homo sapiens, UniProt P30556); experiment: antagonism of angiotensin II type 1 receptor – cell-based, uHTS hits, selectivity assay for APJ receptor antagonist project, dose response (AID 463214); type: functional;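 also: antagonist potency against angiotensin II stimulated AT1 response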
T1 sequence (P30556 whole entry): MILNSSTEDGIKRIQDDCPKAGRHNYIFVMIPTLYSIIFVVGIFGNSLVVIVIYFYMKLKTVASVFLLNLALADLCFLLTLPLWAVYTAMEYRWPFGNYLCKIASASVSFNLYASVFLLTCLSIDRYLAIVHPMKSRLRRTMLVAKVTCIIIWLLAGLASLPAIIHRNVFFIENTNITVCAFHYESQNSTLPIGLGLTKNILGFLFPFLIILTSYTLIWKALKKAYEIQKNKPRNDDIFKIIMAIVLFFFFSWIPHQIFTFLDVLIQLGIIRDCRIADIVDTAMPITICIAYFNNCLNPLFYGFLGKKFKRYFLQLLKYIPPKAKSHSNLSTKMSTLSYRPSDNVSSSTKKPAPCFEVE

[3] = NIH3T3 cell viability loss – ATP luminescence, mouse fibroblasts, counter-screen, dose response (AID 2010); type: functional, cell-based;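 also: cells exposed to compound for about 90 hours before reading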
INS1 = experiment: INS-1E survival protection against cytokine death – cell-based, luminescence, retest, dose response (AID 449756); type: functional; conditions: Rattus norvegicus;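 also: cell death triggered by IL-1 beta plus TNF-alpha plus IFN-gamma mixture; protective hits raise ATP signal compared with cytokine alone wells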
Melanocortin receptor 4 = Melanocortin receptor 4 (Homo sapiens, UniProt P32245); experiment: inhibitors of MC4R cAMP signaling – cell-based, TR-FRET, biased antagonists, dose response (AID 602298); type: functional;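 also: antagonist potency against agonist-stimulated cAMP production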
[4] = reduction of Shn3 3'UTR-driven luciferase in osteoblasts – cell-based, Clone20 osteoblasts, firefly luciferase, cherry-picked, dose response (AID 624132); type: functional;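 also: firefly luciferase luminescence from reporter carrying the Shn3 3'UTR in osteoblasts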
[5] = loss of viability in HepG2 cells – cell-based, CellTiter-Glo, cherry-picked, cytotoxicity control for Shn3 inhibitor project, dose response (AID 624134); type: functional
[6] = non-specific 3'UTR reporter inhibition in Clone20-Shn3RL – cell-based, Renilla luciferase, cherry-picked, counter-screen for Shn3 inhibitor project, dose response (AID 624133); type: functional
[7] = cAMP pathway inhibition in counterscreen cell line – TR-FRET cAMP detection, counter-screen for MC4R biased antagonist project, dose response (AID 602305); type: functional, cell-based;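 also: U2OS cells stimulated with forskolin near its EC80 as the cAMP inducer; potency is for inhibition of forskolin-stimulated cAMP signaling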
Paired box protein Pax-8 = Paired box protein Pax-8 (Homo sapiens, UniProt Q06710); experiment: PAX8 transcriptional activity inhibition in RMG-I – RMG-I cells, luciferase, cherry-pick, dose response (AID 687027); type: functional, cell-based;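 also: luciferase reporter driven by Pax8 target thyroperoxidase promoter measured by SteadyGlo luminescence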
Jurkat = experiment: blockers of NF-kB activation in T cells – Jurkat, luciferase reporter, luminescence, B- and T-cell, dose response (AID 489004); type: functional, cell-based; conditions: Homo sapiens;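 also: NF-kB luciferase reporter Jurkat cells stimulated with PMA plus ionomycin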
[8] = HEK-293T viability loss, compound-treated – cell-based, uHTS hits, cytotoxicity control for B/T-cell NF-kB inhibitor project, dose response (AID 489019); type: functional;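 also: IC50 reflects cytotoxicity as loss of cell viability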
[9] = biological target: T2, High affinity choline transporter 1 (Homo sapiens, UniProt Q9GZV3); experiment: human choline transporter potentiators, potency – cell-based, 10-point CRC, membrane potential dye, dose response (AID 602376); type: functional
T2 sequence (Q9GZV3 whole entry): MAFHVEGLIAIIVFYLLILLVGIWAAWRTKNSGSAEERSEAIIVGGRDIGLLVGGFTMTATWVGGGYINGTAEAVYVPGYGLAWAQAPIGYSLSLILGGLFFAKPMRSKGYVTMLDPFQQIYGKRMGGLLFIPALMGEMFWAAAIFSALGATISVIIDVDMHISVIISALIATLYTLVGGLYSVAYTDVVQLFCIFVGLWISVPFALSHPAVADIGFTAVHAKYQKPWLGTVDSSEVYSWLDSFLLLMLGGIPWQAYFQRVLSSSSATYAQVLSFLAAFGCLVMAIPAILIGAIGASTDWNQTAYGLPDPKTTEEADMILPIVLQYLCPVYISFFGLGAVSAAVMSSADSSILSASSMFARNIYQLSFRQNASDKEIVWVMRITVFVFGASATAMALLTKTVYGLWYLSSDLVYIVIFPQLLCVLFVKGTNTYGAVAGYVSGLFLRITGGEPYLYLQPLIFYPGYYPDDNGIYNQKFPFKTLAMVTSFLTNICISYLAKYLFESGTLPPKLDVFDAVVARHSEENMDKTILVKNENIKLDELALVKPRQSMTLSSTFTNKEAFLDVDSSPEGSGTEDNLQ

[10] = system: Streptococcus sp. 'group A'; experiment: Streptococcus pyogenes SK(-)GAS viability under kanamycin – luminescence, BacTiterGlo, confirmation, counter-screen for streptokinase expression inhibitor project, dose response (AID 1900); type: functional, organism-based
Streptokinase A = biological target: T3, Streptokinase A (Streptococcus pyogenes serotype M1, UniProt P10520); experiment: viability-normalized secreted streptokinase activity reduction – plasminogen activation absorbance, OD405, dose response (AID 1914); type: functional, Streptococcus pyogenes M1 GAS;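 also: secreted streptokinase activity via plasminogen activation per viability signal from cell pellet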
T3 sequence (P10520 whole entry): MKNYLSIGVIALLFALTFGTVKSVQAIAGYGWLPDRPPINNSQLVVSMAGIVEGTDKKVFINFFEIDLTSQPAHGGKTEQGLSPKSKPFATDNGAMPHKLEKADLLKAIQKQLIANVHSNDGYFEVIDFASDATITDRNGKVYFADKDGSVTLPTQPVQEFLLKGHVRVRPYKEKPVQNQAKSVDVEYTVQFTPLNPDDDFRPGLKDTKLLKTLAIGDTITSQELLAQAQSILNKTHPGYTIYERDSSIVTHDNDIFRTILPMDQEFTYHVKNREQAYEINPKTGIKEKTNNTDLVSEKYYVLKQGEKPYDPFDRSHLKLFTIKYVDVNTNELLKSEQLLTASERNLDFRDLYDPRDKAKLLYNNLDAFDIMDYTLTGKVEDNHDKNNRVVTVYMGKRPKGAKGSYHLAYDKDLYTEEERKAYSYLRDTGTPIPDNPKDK

Streptococcus = experiment: GAS UMAA2166 growth inhibition – luminescence, BacTiterGlo, counter-screen for streptokinase expression inhibitor project, dose response (AID 1915); type: functional, organism-based;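 also: potency for reduction of bacterial viability or growth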
[11] = Luminescence Cell-Based Dose Retest to Confirm Inhibitors of Cancer Stem Cells. [Related pubchem assays (depositor defined):AID2717, AID2721]; type: functional; conditions: Homo sapiens
[12] = biological target: Protein disulfide-isomerase (Homo sapiens, UniProt P07237); experiment: inhibition of PDI-driven insulin aggregation – biochemical, turbidity, absorbance, cherry-picked samples, dose response (AID 602350); type: functional
Chain of Protein disulfide-isomerase (P07237 whole entry): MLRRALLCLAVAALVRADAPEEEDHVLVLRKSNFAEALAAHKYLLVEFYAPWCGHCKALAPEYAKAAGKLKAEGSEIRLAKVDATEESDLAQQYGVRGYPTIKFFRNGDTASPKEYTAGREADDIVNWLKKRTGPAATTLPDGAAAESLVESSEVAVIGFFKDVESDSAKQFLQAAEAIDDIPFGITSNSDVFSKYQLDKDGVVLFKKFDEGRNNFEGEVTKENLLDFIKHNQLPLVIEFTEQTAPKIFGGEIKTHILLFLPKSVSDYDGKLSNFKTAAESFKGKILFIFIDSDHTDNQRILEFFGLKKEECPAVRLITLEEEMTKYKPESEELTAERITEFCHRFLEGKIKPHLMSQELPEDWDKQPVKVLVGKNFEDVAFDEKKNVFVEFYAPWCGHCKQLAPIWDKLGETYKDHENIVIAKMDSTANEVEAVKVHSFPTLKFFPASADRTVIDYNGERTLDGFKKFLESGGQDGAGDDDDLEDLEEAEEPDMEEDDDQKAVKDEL

Chain of Melanocortin receptor 4 (P32245 whole entry): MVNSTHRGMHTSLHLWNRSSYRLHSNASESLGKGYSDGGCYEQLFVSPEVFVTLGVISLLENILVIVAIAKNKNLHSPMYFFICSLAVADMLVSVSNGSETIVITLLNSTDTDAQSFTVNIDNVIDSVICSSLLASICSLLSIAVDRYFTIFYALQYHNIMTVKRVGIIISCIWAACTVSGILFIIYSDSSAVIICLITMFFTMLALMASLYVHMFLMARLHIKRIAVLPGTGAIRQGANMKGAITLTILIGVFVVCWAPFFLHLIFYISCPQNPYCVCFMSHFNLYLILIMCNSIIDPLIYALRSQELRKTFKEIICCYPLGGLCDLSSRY
Chain of Paired box protein Pax-8 (Q06710 whole entry): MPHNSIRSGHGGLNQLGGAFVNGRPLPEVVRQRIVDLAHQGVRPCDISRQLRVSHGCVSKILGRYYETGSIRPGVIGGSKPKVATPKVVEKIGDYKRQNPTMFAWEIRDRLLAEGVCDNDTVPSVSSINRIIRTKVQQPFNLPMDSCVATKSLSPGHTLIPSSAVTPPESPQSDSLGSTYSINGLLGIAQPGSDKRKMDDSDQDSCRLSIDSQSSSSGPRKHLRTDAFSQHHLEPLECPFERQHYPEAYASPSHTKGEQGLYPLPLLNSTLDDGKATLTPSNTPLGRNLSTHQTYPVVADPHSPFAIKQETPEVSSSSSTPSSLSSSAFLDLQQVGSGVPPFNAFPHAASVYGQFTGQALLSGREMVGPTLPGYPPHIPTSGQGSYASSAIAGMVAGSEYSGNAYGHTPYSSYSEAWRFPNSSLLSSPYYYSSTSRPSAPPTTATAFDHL
Chain of Beta-galactosidase (Q8VNN2 whole entry): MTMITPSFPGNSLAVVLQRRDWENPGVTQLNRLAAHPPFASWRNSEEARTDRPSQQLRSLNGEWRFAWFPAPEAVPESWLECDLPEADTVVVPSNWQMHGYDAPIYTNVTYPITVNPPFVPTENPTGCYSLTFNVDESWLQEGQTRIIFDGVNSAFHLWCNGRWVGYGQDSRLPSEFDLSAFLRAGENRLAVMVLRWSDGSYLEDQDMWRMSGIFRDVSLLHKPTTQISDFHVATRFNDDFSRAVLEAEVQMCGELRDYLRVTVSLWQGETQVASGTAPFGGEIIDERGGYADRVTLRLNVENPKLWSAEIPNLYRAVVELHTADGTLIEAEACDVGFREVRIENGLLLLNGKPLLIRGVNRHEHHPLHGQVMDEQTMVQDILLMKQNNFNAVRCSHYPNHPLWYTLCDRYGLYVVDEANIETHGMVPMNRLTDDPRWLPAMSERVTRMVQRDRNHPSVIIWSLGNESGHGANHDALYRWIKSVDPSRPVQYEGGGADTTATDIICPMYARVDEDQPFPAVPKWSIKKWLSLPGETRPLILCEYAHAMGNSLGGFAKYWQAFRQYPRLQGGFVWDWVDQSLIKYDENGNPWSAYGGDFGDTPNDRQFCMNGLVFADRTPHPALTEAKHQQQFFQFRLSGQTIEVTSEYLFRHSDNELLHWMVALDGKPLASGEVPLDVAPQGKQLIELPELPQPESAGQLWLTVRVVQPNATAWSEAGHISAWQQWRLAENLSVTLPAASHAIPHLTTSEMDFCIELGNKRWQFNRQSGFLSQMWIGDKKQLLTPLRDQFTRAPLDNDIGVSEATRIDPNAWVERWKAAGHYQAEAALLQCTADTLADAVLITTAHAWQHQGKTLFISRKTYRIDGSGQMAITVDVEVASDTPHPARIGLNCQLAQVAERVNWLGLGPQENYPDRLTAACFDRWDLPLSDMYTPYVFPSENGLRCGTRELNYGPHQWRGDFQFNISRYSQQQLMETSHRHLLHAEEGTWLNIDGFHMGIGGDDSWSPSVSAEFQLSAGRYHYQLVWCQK
Chain of Large T antigen (P03070 whole entry): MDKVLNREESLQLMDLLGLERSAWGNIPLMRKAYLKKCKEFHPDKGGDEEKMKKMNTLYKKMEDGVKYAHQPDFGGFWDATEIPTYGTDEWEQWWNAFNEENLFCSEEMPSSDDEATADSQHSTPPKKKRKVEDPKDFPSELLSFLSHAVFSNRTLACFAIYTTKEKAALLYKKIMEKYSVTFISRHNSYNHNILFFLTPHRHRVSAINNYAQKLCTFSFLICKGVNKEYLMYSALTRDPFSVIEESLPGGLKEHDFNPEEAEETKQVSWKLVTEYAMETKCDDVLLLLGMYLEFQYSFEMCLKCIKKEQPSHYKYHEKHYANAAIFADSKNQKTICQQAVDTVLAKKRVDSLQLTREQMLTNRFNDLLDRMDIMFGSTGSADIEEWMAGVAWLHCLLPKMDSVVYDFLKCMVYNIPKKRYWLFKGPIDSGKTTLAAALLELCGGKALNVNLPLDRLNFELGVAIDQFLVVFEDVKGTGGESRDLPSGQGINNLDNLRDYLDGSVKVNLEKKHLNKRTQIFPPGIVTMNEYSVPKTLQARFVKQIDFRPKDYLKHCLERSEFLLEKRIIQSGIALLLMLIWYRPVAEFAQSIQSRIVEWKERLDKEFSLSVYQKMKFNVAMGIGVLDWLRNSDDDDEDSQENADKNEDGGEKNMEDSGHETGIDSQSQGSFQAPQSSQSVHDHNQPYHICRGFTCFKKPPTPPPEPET

SMILES: CCS(=O)(=O)c1ncc(Cl)c(C(=O)Nc2ccc(S(=O)(=O)N3CCCC(C)C3)cc2)n1 (stereo not given)
- EC50 (Beta-galactosidase): > 40 µM (inactive)
- IC50 (Large T antigen): 62.8 µM (active)
- EC50 [1]: 2.25 µM (active)
- IC50 [2]: 2.18 µM (active)
- EC50 [3]: 3.48 µM (active)
- AC50 (INS1): 4.76 µM (active)
- IC50 (Melanocortin receptor 4): > 0.797 µM (active)
- AC50 [4]: < 0.26 µM (active)
- AC50 [5]: 9.33 µM (active)
- AC50 [6]: 3.95 µM (active)
- IC50 [7]: > 64.6 µM (inactive)
- AC50 (Paired box protein Pax-8): 5.34 µM (active)

SMILES: COc1ccc(-c2cn3c([n+]2-c2ccc(C)cc2)CCCCC3)cc1
- EC50 [1]: 0.171 µM (active)
- EC50 [3]: > 60 µM (not active)
- IC50 (Jurkat): > 80 µM (inactive)
- IC50 [8]: > 80 µM (inactive)
- AC50 (INS1): 0.348 µM (active)
- EC50 [9]: 9.77 µM (active)

SMILES: COC(=O)c1cc(S(=O)(=O)n2nc(C)c(Br)c2C)c(Cl)cc1Cl
- EC50 [10]: 1.8 µM (active)
- EC50 (Streptokinase A): > 150 µM (not active)
- EC50 (Streptococcus): 10.4 µM (active)
- IC50 (Melanocortin receptor 4): > 64.6 µM (inactive)
- IC50 [7]: > 64.6 µM (inactive)

SMILES: Oc1ccc(/C=C/c2nc(-c3ccccc3O)n(-c3ccccc3)n2)cc1
- AC50 [11]: 6.8 µM (active)
- AC50 [12]: 18.8 µM (active)
